The text below walks through data of PubChem BioAssay AID328 (DTP/NCI, 2004).

Values joined by “and” are separate entries in the source; they are usually repeats but may differ in a detail not shown here. Equal values may be shown once. Inconclusive results and toxic doses are left out.

The subject of this experiment is BDF1 mice, P388 leukemia ip, median survival T/C. The experiment can be described thus: NCI In Vivo Anticancer Drug Screen. Data for tumor model P388 Leukemia (intraperitoneal) in B6D2F1 (BDF1) mice. The note with it: endpoint: median survival time, higher = longer survival. A digest of the protocol: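 Each value expresses how treatment altered survival: treated-mouse outcome over vehicle-mouse outcome, both groups bearing the transplanted tumour.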

The mark [1] stands for this setting: dose: 25.0 mg/kg/injection, schedule: Q01DX009 (ip), vehicle: saline with Tween-80.
The mark [2] stands for this setting: dose: 50.0 mg/kg/injection, schedule: Q01DX009 (ip), vehicle: saline with Tween-80.
Setting [3] is: dose: 100.0 mg/kg/injection, schedule: Q01DX009 (ip), vehicle: saline with Tween-80.
The mark [4] stands for this setting: dose: 12.5 mg/kg/injection, schedule: Q01DX009 (ip), vehicle: saline with Tween-80.
[5] abbreviates: dose: 12.5 mg/kg/injection, schedule: Q01DX009 (ip), vehicle: Klucel (hydroxypropylcellulose) (HPC).
The mark [6] stands for this setting: dose: 200.0 mg/kg/injection, schedule: Q01DX009 (ip), vehicle: saline with Tween-80.

On to `O=Nc1c(N=O)c(N=O)c(N=O)c(N=O)c1N=O`, for which the T/C (dose: 1.25 mg/kg/injection, schedule: Q01DX010 (ip), vehicle: saline) is 90 % of control; the T/C (dose: 2.5 mg/kg/injection, schedule: Q01DX010 (ip), vehicle: saline) was 100 % of control; the T/C (dose: 5.0 mg/kg/injection, schedule: Q01DX010 (ip), vehicle: saline) was 100 % of control; the T/C (dose: 10.0 mg/kg/injection, schedule: Q01DX010 (ip), vehicle: saline) was 95 % of control; the T/C (dose: 80.0 mg/kg/injection, schedule: Q01DX010 (ip), vehicle: saline) is 104 % of control.
For `COC(=O)C1(C)N=C(Cc2ccccc2)OO1` (configuration not stated), the T/C under setting [1] was 100 % of control, the T/C under setting [2] is 110 % of control and the T/C under setting [3] is 105 % of control.
Regarding `O=C1NC(C2CCC3CN32)C(=O)NC1C1CCC2CN21` (configuration not stated), the T/C by setting is: (dose: 0.05 mg/kg/injection, schedule: Q01DX009 (ip), vehicle: saline) 91 % of control and 118 % of control; (dose: 0.1 mg/kg/injection, schedule: Q01DX009 (ip), vehicle: saline) 96 % of control; (dose: 0.2 mg/kg/injection, schedule: Q01DX009 (ip), vehicle: saline) 107 % of control; (dose: 0.8 mg/kg/injection, schedule: Q01DX009 (ip), vehicle: saline) 164 % of control and 173 % of control.
In the case of `C1CC[N+]2(CC1)CCC2`, the T/C was 113 % of control (dose: 25.0 mg/kg/injection, schedule: Q01DX009 (ip), vehicle: saline); 109 % of control (dose: 50.0 mg/kg/injection, schedule: Q01DX009 (ip), vehicle: saline); 100 % of control (dose: 100.0 mg/kg/injection, schedule: Q01DX009 (ip), vehicle: saline).
Regarding `CCOC(=O)C(Cc1ccc(N(CCCl)CCCl)cc1)NC(=O)CNC(C)=O` (configuration not stated), the T/C (dose: 12.5 mg/kg/injection, schedule: Q04DX003 (ip), vehicle: saline with Tween-80) was 177 % of control; the T/C (dose: 25.0 mg/kg/injection, schedule: Q04DX003 (ip), vehicle: saline with Tween-80) was 200 % of control; the T/C (dose: 33.0 mg/kg/injection, schedule: Q04DX003 (ip), vehicle: saline with Tween-80) is 280 % of control and 218 % of control; the T/C (dose: 50.0 mg/kg/injection, schedule: Q04DX003 (ip), vehicle: saline with Tween-80) is 259 % of control and 272 % of control and 170 % of control; the T/C (dose: 75.0 mg/kg/injection, schedule: Q04DX003 (ip), vehicle: saline with Tween-80) is 204 % of control.
As for `O=C(CBr)CC(=O)Nc1ccccc1`, the T/C under setting [4] was 100 % of control.
With `Clc1cccc(N=c2cc3oc4ccccc4nc-3cc2Nc2cccc(Cl)c2)c1`, the T/C by setting is: under setting [4], 96 % of control; under setting [1], 99 % of control; under setting [2], 93 % of control.
`Cn1c(=O)c2ncnnc2n(C)c1=O`: the T/C was 103 % of control (dose: 1.5 mg/kg/injection, schedule: Q01DX009 (ip), vehicle: Klucel (hydroxypropylcellulose) (HPC)); 107 % of control (dose: 3.0 mg/kg/injection, schedule: Q01DX009 (ip), vehicle: Klucel (hydroxypropylcellulose) (HPC)); 112 % of control (dose: 6.0 mg/kg/injection, schedule: Q01DX009 (ip), vehicle: Klucel (hydroxypropylcellulose) (HPC)); 250 % of control (dose: 6.25 mg/kg/injection, schedule: Q01DX009 (ip), vehicle: Klucel (hydroxypropylcellulose) (HPC)); 106 % of control (dose: 12.0 mg/kg/injection, schedule: Q01DX009 (ip), vehicle: Klucel (hydroxypropylcellulose) (HPC)); 108 % of control under setting [5].
For `Oc1cccc2ccc(CC(O)(c3ccccc3)c3ccccc3)nc12`, the T/C reads like this: under setting [1], 108 % of control; under setting [2], 99 % of control; under setting [3], 108 % of control.
Turning to `CC(=O)C1=CC(=O)NC(=O)C1C(=O)CC(C)C` (configuration not stated), the T/C was 115 % of control (dose: 1.56 mg/kg/injection, schedule: Q01DX009 (ip), vehicle: saline + alcohol); 123 % of control (dose: 3.13 mg/kg/injection, schedule: Q01DX009 (ip), vehicle: saline + alcohol); 118 % of control (dose: 6.25 mg/kg/injection, schedule: Q01DX009 (ip), vehicle: other); 106 % of control (dose: 6.25 mg/kg/injection, schedule: Q01DX009 (ip), vehicle: saline + alcohol).
In the case of `CP12(OC(=O)c3ccccc31)OC(=O)c1ccccc12`, the T/C reads like this: under setting [2], 91 % of control; under setting [3], 91 % of control; under setting [6], 96 % of control.
With `c1ccc2c[n+]3ccccc3cc2c1`, the T/C (dose: 6.25 mg/kg/injection, schedule: Q01DX009 (ip), vehicle: saline) is 95 % of control; the T/C (dose: 8.75 mg/kg/injection, schedule: Q04DX003 (ip), vehicle: saline) was 100 % of control; the T/C under setting [5] is 100 % of control; the T/C (dose: 12.5 mg/kg/injection, schedule: Q01DX009 (ip), vehicle: saline) is 104 % of control; the T/C (dose: 17.5 mg/kg/injection, schedule: Q04DX003 (ip), vehicle: saline) was 95 % of control; the T/C (dose: 25.0 mg/kg/injection, schedule: Q01DX009 (ip), vehicle: Klucel (hydroxypropylcellulose) (HPC)) is 95 % of control.
Take `N#CCCC1(CCC#N)c2ccccc2-c2ccccc21`: the T/C is 92 % of control (dose: 100.0 mg/kg/injection, schedule: Q01DX009 (ip), vehicle: Klucel (hydroxypropylcellulose) (HPC)); 96 % of control (dose: 100.0 mg/kg/injection, schedule: Q04DX003 (ip), vehicle: Klucel (hydroxypropylcellulose) (HPC)); 92 % of control (dose: 200.0 mg/kg/injection, schedule: Q01DX009 (ip), vehicle: Klucel (hydroxypropylcellulose) (HPC)); 112 % of control (dose: 200.0 mg/kg/injection, schedule: Q04DX003 (ip), vehicle: Klucel (hydroxypropylcellulose) (HPC)); 92 % of control (dose: 400.0 mg/kg/injection, schedule: Q01DX009 (ip), vehicle: Klucel (hydroxypropylcellulose) (HPC)); 92 % of control (dose: 400.0 mg/kg/injection, schedule: Q04DX003 (ip), vehicle: Klucel (hydroxypropylcellulose) (HPC)).
With `O=P(c1ccccc1)(N1CC1)N1CC1`, the T/C reads like this: (dose: 7.5 mg/kg/injection, schedule: Q01DX009 (ip), vehicle: saline) 109 % of control; (dose: 15.0 mg/kg/injection, schedule: Q01DX009 (ip), vehicle: saline) 123 % of control; (dose: 30.0 mg/kg/injection, schedule: Q01DX009 (ip), vehicle: saline) 119 % of control.
Take `Nc1ccccc1N`: the T/C reads like this: under setting [1], 92 % of control and 100 % of control; under setting [2], 100 % of control; under setting [6], 97 % of control.
`CCOC(=O)/C(C#N)=C/C=C1C=CN(C)C=C1`: the T/C was 86 % of control under setting [2], 105 % of control under setting [3] and 116 % of control under setting [6].
For `CCc1ccc(C(=O)N/N=C(\C)[C@]2(O)Cc3c(O)c4c(c(O)c3[C@@H](OC3CC(N)C(O)C(C)O3)C2)C(=O)c2c(OC)cccc2C4=O)cc1` (some centres not stated), the T/C runs as follows: (dose: 1.56 mg/kg/injection, schedule: Q01DX009 (ip), vehicle: water) 117 % of control; (dose: 3.12 mg/kg/injection, schedule: Q01DX009 (ip), vehicle: water) 161 % of control; (dose: 6.25 mg/kg/injection, schedule: Q01DX009 (ip), vehicle: water) 152 % of control and 166 % of control; (dose: 12.5 mg/kg/injection, schedule: Q01DX009 (ip), vehicle: water) 95 % of control and 122 % of control.
Consider `CC(=O)OS(C)(=O)=O`, for which the T/C is, setting by setting: (dose: 20.0 mg/kg/injection, schedule: Q04DX003 (ip), vehicle: saline) 100 % of control; (dose: 40.0 mg/kg/injection, schedule: Q04DX003 (ip), vehicle: saline) 95 % of control; (dose: 80.0 mg/kg/injection, schedule: Q04DX003 (ip), vehicle: saline) 104 % of control; (dose: 100.0 mg/kg/injection, schedule: Q04DX003 (ip), vehicle: saline) 110 % of control.
Turning to `CCCCN(C)N=Nc1c(C(N)=O)n[nH]c1C`, the T/C (dose: 22.0 mg/kg/injection, schedule: Q01DX009 (ip), vehicle: saline with Tween-80) is 122 % of control; the T/C under setting [1] is 120 % of control; the T/C under setting [2] was 154 % of control; the T/C (dose: 88.0 mg/kg/injection, schedule: Q04DX003 (ip), vehicle: Klucel (hydroxypropylcellulose) (HPC)) was 109 % of control.
Take `CCCCN(C)C(=S)S[Te](SC(=S)N(C)CCCC)(SC(=S)N(C)CCCC)SC(=S)N(C)CCCC`: the T/C is 100 % of control (dose: 45.0 mg/kg/injection, schedule: Q01DX010 (ip), vehicle: carboxymethylcellulose (CMC)); 105 % of control (dose: 90.0 mg/kg/injection, schedule: Q01DX010 (ip), vehicle: carboxymethylcellulose (CMC)); 115 % of control (dose: 180.0 mg/kg/injection, schedule: Q01DX010 (ip), vehicle: carboxymethylcellulose (CMC)); 110 % of control (dose: 360.0 mg/kg/injection, schedule: Q01DX010 (ip), vehicle: carboxymethylcellulose (CMC)).
